Source: patent publication US20130190217A1, “ESTER OILS” (PANOLIN Holding AG, priority 2010, published 2013)
“And” between values parts separate entries of the source, which are not always exact repeats. Identical values can stand only once.

Experiments:
Flashpoint = format: physicochemical
Viscosity index (VI) = format: physicochemical
Pour point = format: physicochemical
Excerpt: In addition, the inventive ester oils have a high flashpoint, such that use at relatively high oil sump and component temperatures is possible without risk. In addition, the pour point of the ester oils is relatively low, as a result of which the esters are also usable at low temperatures. For a liquid product, the pour point denotes the temperature at which it is still just free-flowing in the course of cooling. Thus, the inventive ester oils can be used within a broad temperature range.

Kinematic viscosity = format: physicochemical
[1] = NOACK vaporization (physical vaporization according to Noack, 250° C. for 1 h); format: physicochemical
Excerpt: Trimethylolpropane esters (TMP-C8/C10) are commercially available from various suppliers and have been used for comparative purposes.

Density = format: physicochemical; details: Table 3
[2] = Cold Crank Simulator according to ASTM D5293; format: physicochemical
Description: (§1) For the C12D13 esters and the C10D13 esters, three independently prepared samples were included in each case. For the C9D13 ester and for the D5C18 ester, one sample was analyzed in each case. The “CCS−25° C. [mPas]” and “CCS−20° C. [mPas]” columns each contain figures for the “Cold Crank Simulator” according to the standard ASTM D5293 at −25° C. and −20° C. The HTHS150° C. [mPas] column indicates what is called the “High-Temperature High-Shear Viscosity” (HTHS) at elevated temperature.

[3] = High-Temperature High-Shear Viscosity (HTHS); format: physicochemical; details: 150° C.
Description: as §1

[4] = taken from safety data sheets; cited from earlier work
[5] = taken from safety data sheets; cited from earlier work; remark: listed apart in the source
[6] = UBA number 4203; cited from earlier work
[7] = taken from safety data sheets; cited from earlier work; remark: listed apart in the source
[8] = Table 3, listed as C10D13 (4th sample)
[9] = Table 3, listed as C10D13 (5th sample)
[10] = Table 3, listed as C12D13 (1st sample)
[11] = Table 3, listed as C12D13 (2nd sample)
[12] = Table 3, listed as C12D13 (3rd sample)

## CCCCCCCCC(CCCCCC)COC(=O)CCCCCCCC(=O)OCC(CCCCCC)CCCCCCCC (stereo not drawn) [Bis(2-hexyldecyl) azelate]
Flashpoint; Table 2, base oil
  Flashpoint: 278 °C
Viscosity index (VI); Table 2, base oil
  VI: 160
Pour point; Table 2, base oil
  Pour point: −64 °C
Kinematic viscosity; Table 2, 40° C.
  η40° C.: 33.0 mm^2/s
Kinematic viscosity; Table 2, 100° C.
  η100° C.: 6.60 mm^2/s

## CC(C)CCCCCCCCCCOC(=O)CCCCCCCC(=O)OCCCCCCCCCCC(C)C [C9D13, di(isotridecyl)nonanedioate]
Flashpoint; Table 2, base oil
  Flashpoint: 258 °C
[1]; Table 2, base oil
  NOACK: 4.0%
[1]; Table 3, 250° C. for 1 h
  NOACK: 3.5%
Viscosity index (VI); Table 2, base oil
  VI: 124
Viscosity index (VI); Table 3
  VI: 150
Pour point; Table 2, base oil
  Pour point: −39 °C
Kinematic viscosity; Table 2, 40° C.
  η40° C.: 42.4 mm^2/s
Kinematic viscosity; Table 2, 100° C.
  η100° C.: 6.82 mm^2/s
Kinematic viscosity; Table 3, 40° C.
  η40° C.: 36.1 mm^2/s
Kinematic viscosity; Table 3, 100° C.
  η100° C.: 6.8 mm^2/s

## CC(C)CCCCCCCCCCOC(=O)CCCCCCCCC(=O)OCCCCCCCCCCC(C)C [C10D13, di(isotridecyl)decanedioate]
Flashpoint; Table 3
  Flashpoint: 250 °C
[1]; Table 3, 250° C. for 1 h, listed as C10D13 (4th sample)
  NOACK: 2.7%
[1]; Table 3, 250° C. for 1 h, listed as C10D13 (5th sample)
  NOACK: 4%
[1]; Table 3, 250° C. for 1 h, listed as C10D13 (6th sample)
  NOACK: 3.4%
Viscosity index (VI); [8]
  VI: 172
Viscosity index (VI); [9]
  VI: 150
Viscosity index (VI); Table 3, listed as C10D13 (6th sample)
  VI: 149
Pour point; [8]
  Pour point: −52 °C
Pour point; [9]
  Pour point: −50 °C
Kinematic viscosity; Table 3, 40° C., listed as C10D13 (4th sample)
  η40° C.: 35.5 mm^2/s
Kinematic viscosity; Table 3, 40° C., listed as C10D13 (5th sample)
  η40° C.: 36.0 mm^2/s
Kinematic viscosity; Table 3, 40° C., listed as C10D13 (6th sample)
  η40° C.: 35.7 mm^2/s
Kinematic viscosity; Table 3, 100° C., listed as C10D13 (4th sample)
  η100° C.: 7.2 mm^2/s
Kinematic viscosity; Table 3, 100° C., listed as C10D13 (5th sample)
  η100° C.: 6.8 mm^2/s
Kinematic viscosity; Table 3, 100° C., listed as C10D13 (6th sample)
  η100° C.: 6.7 mm^2/s

## CC(C)CCCCCCCCCCOC(=O)CCCCCCCCCCC(=O)OCCCCCCCCCCC(C)C [C12D13, di(isotridecyl)dodecanedioate]
Flashpoint; Table 2, base oil
  Flashpoint: 277 °C
Flashpoint; [10]
  Flashpoint: 276 °C
Flashpoint; [11]
  Flashpoint: 277 °C
Flashpoint; [12]
  Flashpoint: 261 °C
[1]; Table 2, base oil
  NOACK: 5.7%
[1]; Table 3, 250° C. for 1 h, listed as C12D13 (1st sample)
  NOACK: 2.4%
[1]; Table 3, 250° C. for 1 h, listed as C12D13 (2nd sample)
  NOACK: 4.3%
[1]; Table 3, 250° C. for 1 h, listed as C12D13 (3rd sample)
  NOACK: 2.9%
Viscosity index (VI); Table 2, base oil
  VI: 158
Viscosity index (VI); [10]
  VI: 158
Viscosity index (VI); [11]
  VI: 147
Viscosity index (VI); [12]
  VI: 156
Pour point; Table 2, base oil
  Pour point: −57 °C
Pour point; [10]
  Pour point: −48 °C
Pour point; [11]
  Pour point: −57 °C
Pour point; [12]
  Pour point: −51 °C
Kinematic viscosity; Table 2, 40° C.
  η40° C.: 42.0 mm^2/s
Kinematic viscosity; Table 2, 100° C.
  η100° C.: 7.5 mm^2/s
Kinematic viscosity; Table 3, 40° C., listed as C12D13 (1st sample)
  η40° C.: 40.47 mm^2/s
Kinematic viscosity; Table 3, 40° C., listed as C12D13 (2nd sample)
  η40° C.: 42.0 mm^2/s
Kinematic viscosity; Table 3, 40° C., listed as C12D13 (3rd sample)
  η40° C.: 41.2 mm^2/s
Kinematic viscosity; Table 3, 100° C., listed as C12D13 (1st sample)
  η100° C.: 7.573 mm^2/s
Kinematic viscosity; Table 3, 100° C., listed as C12D13 (2nd sample)
  η100° C.: 7.5 mm^2/s
Kinematic viscosity; Table 3, 100° C., listed as C12D13 (3rd sample)
  η100° C.: 7.6 mm^2/s
Kinematic viscosity; Table 3, 150° C.
  η150° C.: 3.45 mm²/s
Density; listed as C12D13 (1st sample)
  Density: 0.9051 g/mL
Density; listed as C12D13 (2nd sample)
  Density: 0.9020 g/mL
Density; listed as C12D13 (3rd sample)
  Density: 0.904 g/mL
[2]; listed as C12D13 (1st sample)
  CCS−20° C.: 1910 mPas
  CCS−25° C.: 3210 mPas
[2]; listed as C12D13 (2nd sample)
  CCS−20° C.: 1700 mPas
[2]; listed as C12D13 (3rd sample)
  CCS−25° C.: 3230 mPas
[3]
  HTHS150° C.: 2.7 mPa·s
[4]
  Aquatic toxicity OECD 202: 880 mg/L
[5]
  Aquatic toxicity OECD 203: >1000 mg/L
[6]
  water endangerment class (WGK): WGK 1

## CC(C)CCCCCCCCCCCCCCC(=O)OCC(C)(C)COC(=O)CCCCCCCCCCCCCCC(C)C [D5C18, neopentyl glycol di(isostearate)]
Flashpoint; Table 3
  Flashpoint: 280 °C
[1]; Table 3, 250° C. for 1 h
  NOACK: 2.0%
Viscosity index (VI); Table 3
  VI: 146
Pour point; Table 3
  Pour point: −44 °C
Kinematic viscosity; Table 3, 40° C.
  η40° C.: 46.0 mm^2/s
Kinematic viscosity; Table 3, 100° C.
  η100° C.: 8.0 mm^2/s
[7]
  Aquatic toxicity OECD 201: >1000 mg/L
[4]
  Aquatic toxicity OECD 202: >1000 mg/L
[5]
  Aquatic toxicity OECD 203: >10 000 mg/l

## CC(C)CCCCCCCCCCOC(=O)CCCCC(=O)OCCCCCCCCCCC(C)C [DITA, diisotridecyl adipate, reference compound]
Flashpoint; Table 2, base oil
  Flashpoint: 227 °C
Flashpoint; Table 3
  Flashpoint: 244 °C
[1]; Table 2, base oil
  NOACK: 8-10%
[1]; Table 3, 250° C. for 1 h
  NOACK: 10.0%
Viscosity index (VI); Table 2, base oil
  VI: 139
Viscosity index (VI); Table 3
  VI: 139
Pour point; Table 2, base oil
  Pour point: −51 °C
Pour point; Table 3
  Pour point: −60 °C
Kinematic viscosity; Table 2, 40° C.
  η40° C.: 27.0 mm^2/s
Kinematic viscosity; Table 2, 100° C.
  η100° C.: 5.4 mm^2/s
Kinematic viscosity; Table 3, 40° C.
  η40° C.: 25 mm^2/s
Kinematic viscosity; Table 3, 100° C.
  η100° C.: 5 mm^2/s
Density
  Density: 0.91 g/mL
[2]
  CCS−20° C.: 1455 mPas
  CCS−25° C.: 2646 mPas
[7]
  Aquatic toxicity OECD 201: >1000 mg/L
[4]
  Aquatic toxicity OECD 202: >100 mg/L

## CC(C)CCCCCCCOC(=O)CCCCCCCCCCC(=O)OCCCCCCCC(C)C [Di(isodecyl) dodecanedioate]
Flashpoint; Table 2, base oil
  Flashpoint: 266 °C
[1]; Table 2, base oil
  NOACK: 3.5% and 4.3%
Viscosity index (VI); Table 2, base oil
  VI: 161 and 162
Kinematic viscosity; Table 2, 40° C.
  η40° C.: 25.7 mm^2/s and 23.4 mm^2/s
Kinematic viscosity; Table 2, 100° C.
  η100° C.: 5.58 mm^2/s and 5.2 mm^2/s

## CC(C)CCCCCCCOC(=O)CCCCC(=O)OCCCCCCCC(C)C [Diisodecyl adipate]
Flashpoint; Table 2, base oil
  Flashpoint: 235 °C
[1]; Table 2, base oil
  NOACK: 15.5%
Viscosity index (VI); Table 2, base oil
  VI: 148
Pour point; Table 2, base oil
  Pour point: −60 °C
Kinematic viscosity; Table 2, 40° C.
  η40° C.: 14.0 mm^2/s
Kinematic viscosity; Table 2, 100° C.
  η100° C.: 3.10 mm^2/s

## CC(C)CCCCCCCOC(=O)CCCCCCCC(=O)OCCCCCCCC(C)C [Diisodecyl azelate]
Flashpoint; Table 2, base oil
  Flashpoint: 230 °C
[1]; Table 2, base oil
  NOACK: 9.8%
Viscosity index (VI); Table 2, base oil
  VI: 151
Pour point; Table 2, base oil
  Pour point: −65 °C
Kinematic viscosity; Table 2, 40° C.
  η40° C.: 18.1 mm^2/s
Kinematic viscosity; Table 2, 100° C.
  η100° C.: 4.3 mm^2/s

## CCCCCCCCCCCCCCOC(=O)CCCCC(=O)OCCCCCCCCCCCCCC [Ditetradecyl adipate]
Viscosity index (VI); Table 2, base oil
  VI: 75
Kinematic viscosity; Table 2, 40° C.
  η40° C.: 34.3 mm^2/s
Kinematic viscosity; Table 2, 100° C.
  η100° C.: 5.1 mm^2/s

## CCCCCCCCCCCCCOC(=O)CCCCCCCC(=O)OCCCCCCCCCCCCC [Ditridecyl azelate]
Flashpoint; Table 2, base oil
  Flashpoint: 243 °C
Viscosity index (VI); Table 2, base oil
  VI: 145
Pour point; Table 2, base oil
  Pour point: −55 °C
Kinematic viscosity; Table 2, 40° C.
  η40° C.: 33.8 mm^2/s
Kinematic viscosity; Table 2, 100° C.
  η100° C.: 6.4 mm^2/s

## Di(C9) dodecanedioate
Flashpoint; Table 2, base oil
  Flashpoint: 245 °C
[1]; Table 2, base oil
  NOACK: 5.0%
Viscosity index (VI); Table 2, base oil
  VI: 189
Kinematic viscosity; Table 2, 40° C.
  η40° C.: 24.8 mm^2/s
Kinematic viscosity; Table 2, 100° C.
  η100° C.: 5.6 mm^2/s

## Di(iso-C9) dodecanedioate
[1]; Table 2, base oil
  NOACK: 6.0%
Viscosity index (VI); Table 2, base oil
  VI: 184
Pour point; Table 2, base oil
  Pour point: −25 °C
Kinematic viscosity; Table 2, 40° C.
  η40° C.: 23.2 mm^2/s
Kinematic viscosity; Table 2, 100° C.
  η100° C.: 5.28 mm^2/s

## Dodecanediol dipelargonate
[1]; Table 2, base oil
  NOACK: 7.4%
Viscosity index (VI); Table 2, base oil
  VI: 182
Pour point; Table 2, base oil
  Pour point: −38 °C
Kinematic viscosity; Table 2, 40° C.
  η40° C.: 25.25 mm^2/s
Kinematic viscosity; Table 2, 100° C.
  η100° C.: 5.58 mm^2/s

## trimethylolpropane ester [TMP-C8/10, reference compound]
Flashpoint; Table 3
  Flashpoint: 235 °C
[1]; Table 3, 250° C. for 1 h
  NOACK: 3.6%
Viscosity index (VI); Table 3
  VI: 140
Pour point; Table 3
  Pour point: −30 °C
Kinematic viscosity; Table 3, 40° C.
  η40° C.: 22 mm^2/s
Kinematic viscosity; Table 3, 100° C.
  η100° C.: 4.5 mm^2/s
Density
  Density: 0.94 g/mL
[2]
  CCS−20° C.: 221 mPas
  CCS−25° C.: 853 mPas
[7]
  Aquatic toxicity OECD 201: 140 mg/L
[4]
  Aquatic toxicity OECD 202: 600 mg/L
[5]
  Aquatic toxicity OECD 203: >10 000 mg/l
